Some test systems named below: NCI-H23 lung; SF-295 CNS; NCI/ADR-RES ovarian; HCT-116 colon; KM12 colon.
Test in all cases: DTP human tumour cell line panel, 48 h

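Cultured in 96-well plates, cells were exposed to test compound for 48 hours across five concentrations. At the TGI there is no net growth.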 Where a SMILES comes first, the peptide text is derived from it. The star is where a group is joined. Boc = CC(C)(C)OC(=O)*

Turning to `Nc1ncnc2c1nnn2C1C=CC(COS(N)(=O)=O)C1` (centres undefined), the concentration for total growth inhibition (TGI) is 18.2 µM in the experiment on NCI-H23 lung; greater than 100 µM in the experiment on SF-295 CNS; greater than 100 µM with NCI/ADR-RES ovarian; 36.3 µM with HCT-116 colon; 86.3 µM with KM12 colon.

In the case of `O=S(=O)(c1ccccc1)n1c2ccc(Br)cc2c2nc3ccccc3nc21`, the total growth inhibition concentration (TGI) in the experiment with NCI-H23 lung, in the experiment with SF-295 CNS, with NCI/ADR-RES ovarian, with HCT-116 colon and with KM12 colon was greater than 100 µM in each case.

In the case of `COC(=O)C1=C(C(=O)OC)C(C(=O)c2ccc(Br)cc2)N2N=C(c3ccc(Cl)cc3)C=CC12` (centres undefined), the TGI with NCI-H23 lung, in the experiment with SF-295 CNS, in the experiment on NCI/ADR-RES ovarian, in the experiment on HCT-116 colon and in the experiment on KM12 colon was greater than 100 µM each time.

For `C[n+]1c(-c2ccc(/C=N/NC(=N)N/N=C/c3ccc(-c4cn5cc(Cl)ccc5[n+]4C)cc3)cc2)cn2cc(Cl)ccc21`, the TGI with SF-295 CNS, in the experiment with NCI/ADR-RES ovarian, in the experiment with HCT-116 colon and in the experiment with KM12 colon was greater than 100 µM in each case.

Turning to `COC(=O)C(Cc1c(C2Nc3ccccc3C2CC(NC(=O)CNC(C)=O)C(=O)OC)[nH]c2ccccc12)NC(=O)CNC(C)=O` (centres undefined), the concentration for total growth inhibition (TGI) with NCI-H23 lung, in the experiment on SF-295 CNS, in the experiment with NCI/ADR-RES ovarian, in the experiment on HCT-116 colon and in the experiment on KM12 colon was greater than 100 µM each time.

In the case of `Cc1[nH]c2c(c1C)S(=O)(=O)c1cc3ccccc3nc1N2`, the total growth inhibition concentration (TGI) with NCI-H23 lung, in the experiment with SF-295 CNS, in the experiment on NCI/ADR-RES ovarian, with HCT-116 colon and in the experiment on KM12 colon was greater than 100 µM throughout.

On to `Cc1ccsc1/C=N/Nc1nc2ccccc2s1`, for which the total growth inhibition concentration (TGI) in the experiment with NCI-H23 lung was greater than 100 µM; in the experiment on SF-295 CNS it was 23.8 µM; in the experiment on NCI/ADR-RES ovarian, 77.4 µM; in the experiment with HCT-116 colon, 23.2 µM; with KM12 colon, 74.6 µM.

For the molecule `Cc1cnc2sn(-c3ccc(Oc4ccccc4)cc3)c(=O)c2c1`, the total growth inhibition concentration (TGI) in the experiment on NCI-H23 lung stood at 80.3 µM; in the experiment on SF-295 CNS it was 39.3 µM; in the experiment on NCI/ADR-RES ovarian, 55.7 µM; in the experiment on HCT-116 colon, 71.4 µM; with KM12 colon, 28 µM.

Consider `COc1ccc2nc3c([N+](=O)[O-])ccc4c3c(c2c1)NCCN4CCO`, for which the TGI in the experiment on NCI-H23 lung is 2.45 µM; with SF-295 CNS it was 1.71 µM; in the experiment on NCI/ADR-RES ovarian, 4.41 µM; in the experiment with HCT-116 colon, 1.22 µM; in the experiment on KM12 colon, 2.35 µM.

For the molecule `CC[C@]12C=CCN3CC[C@@]4(c5cc(Br)c(OC)cc5N(C)[C@H]4[C@@](O)(C(=O)NN)[C@@H]1O)[C@@H]32`, the concentration for total growth inhibition (TGI) in the experiment with NCI-H23 lung, in the experiment with SF-295 CNS, in the experiment with NCI/ADR-RES ovarian, in the experiment with HCT-116 colon and in the experiment with KM12 colon was greater than 100 µM throughout.

`COC(=O)C1Cc2c(OC)ccc(OC)c2CC(C(=O)OC)C1=O` (centres undefined): the concentration for total growth inhibition (TGI) was 85.3 µM in the experiment on NCI-H23 lung; greater than 100 µM in the experiment with SF-295 CNS; greater than 100 µM in the experiment with NCI/ADR-RES ovarian; greater than 100 µM in the experiment with HCT-116 colon; greater than 100 µM in the experiment with KM12 colon.

As for `N#CCc1n[nH]c(Cc2ccccc2)n1`, the TGI with NCI-H23 lung, in the experiment with SF-295 CNS, in the experiment on NCI/ADR-RES ovarian, with HCT-116 colon and with KM12 colon was greater than 100 µM throughout.

For the molecule `COC(=O)C(Cc1c[nH]c2ccccc12)NC(=O)C(Cc1c[nH]c2ccccc12)NC(=O)C(Cc1c[nH]c2ccccc12)NC(=O)C(Cc1c[nH]c2ccccc12)NC(=O)C(Cc1c[nH]c2ccccc12)NC(=O)C(Cc1c[nH]c2ccccc12)NC(=O)OC(C)(C)C` (centres undefined) (Boc-WWWWWW-OMe; configuration not given here), the TGI with NCI-H23 lung and in the experiment on HCT-116 colon was greater than 100 µM throughout.

Turning to `COC(=O)[C@]1(c2cc3ccccc3n2S(=O)(=O)c2ccccc2)CC2CN(C(C)=O)C1CC2=O` (some centres undefined), the total growth inhibition concentration (TGI) with NCI-H23 lung is 9.38 µM; in the experiment with SF-295 CNS, 30.1 µM; in the experiment with NCI/ADR-RES ovarian, greater than 40.4 µM; in the experiment on HCT-116 colon, 4.2 µM; in the experiment with KM12 colon, 8.22 µM.

For the molecule `CC(=O)OCCCOCn1c(Cc2ccccc2)c(C)c(=O)[nH]c1=O`, the TGI with NCI-H23 lung, with SF-295 CNS, in the experiment with HCT-116 colon and in the experiment with KM12 colon was greater than 100 µM in each case.

Consider `O=C(c1ccccc1)N1CCN(C(=S)N(C(=O)c2ccccc2)c2ccccc2)C1=S`, for which the TGI was 11.6 µM in the experiment with NCI-H23 lung; 31.6 µM in the experiment with SF-295 CNS; greater than 27.7 µM with NCI/ADR-RES ovarian; 12.6 µM with HCT-116 colon; 20.5 µM in the experiment with KM12 colon.

Take `CCN(CC)CC1CCCCN1CC(=O)N1c2ccccc2NC(=O)CC1C` (centres undefined): the TGI in the experiment on NCI-H23 lung, in the experiment on SF-295 CNS, with NCI/ADR-RES ovarian, in the experiment with HCT-116 colon and in the experiment on KM12 colon was greater than 100 µM throughout.

In the case of `BrCCCCCOc1ccc(-c2c3ccccc3c(-c3ccc(OCCCCCBr)cc3)c3ccccc23)cc1`, the TGI with SF-295 CNS, in the experiment on NCI/ADR-RES ovarian, in the experiment on HCT-116 colon and in the experiment on KM12 colon was greater than 100 µM throughout.

As to `O=C(/C=C/c1ccc(O)cc1)c1ccc2c(c1)OCO2`, the TGI in the experiment on NCI-H23 lung came to 39.2 µM; in the experiment with SF-295 CNS it was 55.5 µM; in the experiment on NCI/ADR-RES ovarian it was 67.9 µM; with HCT-116 colon, 25.4 µM; in the experiment on KM12 colon it was 33.7 µM.

Regarding `COC(=O)/C(=C\Nc1cccc(C)n1)S(=O)(=O)c1ccc(C)cc1`, the TGI in the experiment with NCI-H23 lung is greater than 100 µM; in the experiment with SF-295 CNS, greater than 100 µM; with NCI/ADR-RES ovarian, greater than 100 µM; in the experiment on HCT-116 colon it was greater than 100 µM; with KM12 colon it was 90.3 µM.

On to `N/C(=N\S(=O)(=O)c1ccc(S(=O)(=O)c2ccccc2)s1)Nc1ccc(Cl)cc1`, for which the TGI with NCI-H23 lung was 90.4 µM; in the experiment on SF-295 CNS it was 47 µM; in the experiment with NCI/ADR-RES ovarian, 45.1 µM; with HCT-116 colon, 32.9 µM; in the experiment on KM12 colon, greater than 100 µM.

`Oc1ccc(-c2nc(-c3cccnc3)c(-c3ccc(Cl)cc3)[nH]2)cc1O`: the TGI in the experiment with NCI-H23 lung was 23.9 µM; in the experiment on SF-295 CNS it was 29.8 µM; in the experiment with NCI/ADR-RES ovarian, 32.5 µM; with HCT-116 colon it was 26.7 µM; with KM12 colon, 21.2 µM.

Take `CC1(C)N=C(C(N)=O)c2ncn(N)c2N1`: the TGI in the experiment on NCI-H23 lung, in the experiment with SF-295 CNS, in the experiment with NCI/ADR-RES ovarian, with HCT-116 colon and in the experiment on KM12 colon was greater than 100 µM each time.

Usually TGI stands for the concentration giving total growth inhibition.

For the origin of these results see PubChem BioAssay (NCI).
